The source of these data is patent publication US5681588A, “Delayed release microtablet of β-phenylpropiophenone derivatives” (priority 1993, dated 1997).

The data set is described as follows: Release of other medicinal substances from the same preparation. It is filed as physicochemical. The settings on record: in 1 hour.

Counter-ions that a name gives are not always drawn.

In the case of `CC(=O)Nc1ccc(O)cc1` [paracetamol], the “release from the same preparation” value was 90%.
Regarding `CN/C(=N/CCSCc1nc[nH]c1C)NC#N` [cimetidine hydrochloride], the “release from the same preparation” value turned out to be 90%.
